# How the values were obtained:
# [1] = tested on: VERPE; test: Post-emergence herbicidal action against VERPE; format: in vivo, Veronica persica; details: Veronica persica, 504 h
# Summary of the method: (§1)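 Herbicidal action is a visual percentage rating (0% = as untreated control, 100% = plants dead) made roughly 3 weeks after treatment. Plants were grown in sandy loam in the greenhouse and treated at the one-leaf stage, 2 to 3 weeks post-sowing. Treatment was a foliar spray of wettable-powder or emulsion-concentrate formulations at 600 to 800 l/ha water plus 0.2% wetting agent.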
# [2] = tested on: HORMU; test: Pre-emergence herbicidal action against HORMU; format: in vivo, Hordeum murinum; details: Hordeum murinum, 504 h, pre-emergence
# Summary of the method: (§2)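 Sandy loam pots, seeds covered with soil, then surface-treated with WP or EC formulations at 600–800 l/ha water plus 0.2% wetting agent. Greenhouse, 3 weeks. Percent damage vs untreated controls.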
# [3] = tested on: POLCO; test: Pre-emergence herbicidal action against POLCO; format: in vivo, Polygonum convolvulus; details: Fallopia convolvulus, 504 h; for pest or weed control at 320 g/ha: dosage 320 g/ha
# Summary of the method: as §2
# [4] = tested on: AMARE; test: Pre-emergence herbicidal action against AMARE; format: in vivo, Amaranthus retroflexus; details: Amaranthus retroflexus, 504 h, 100% = plants have died, 0% = like control plants; for pest or weed control at 320 g/ha: scored visually after 3 weeks
# Summary of the method: as §2
# [5] = tested on: LOLRI; test: Post-emergence herbicidal action against LOLRI; format: in vivo, Lolium rigidum; details: Lolium rigidum, 504 h; for pest or weed control at 20 g/ha: dosage 20 g/ha; for pest or weed control at 80 g/ha: dosage 80 g/ha
# Summary of the method: as §1
# [6] = tested on: ECHCG; test: Pre-emergence herbicidal action against ECHCG; format: in vivo, Echinochloa crus-galli; details: Echinochloa crus-galli, 504 h
# Summary of the method: as §2
# [7] = tested on: HORMU; test: Post-emergence herbicidal action against HORMU; format: in vivo, Hordeum murinum; details: Hordeum murinum, 504 h; for pest or weed control at 80 g/ha: dosage 80 g/ha
# Summary of the method: as §1
# [8] = tested on: STEME; test: Post-emergence herbicidal action against STEME; format: in vivo, Stellaria media; details: Stellaria media, 504 h
# Summary of the method: as §1
# [9] = tested on: POLCO; test: Post-emergence herbicidal action against POLCO; format: in vivo, Polygonum convolvulus; details: Fallopia convolvulus, 504 h, dosage 80 g/ha
# Summary of the method: as §1
# [10] = tested on: SETVI; test: Post-emergence herbicidal action against SETVI; format: in vivo, Setaria viridis; details: Setaria viridis, 504 h; for pest or weed control at 20 g/ha: dosage 20 g/ha; for pest or weed control at 80 g/ha: dosage 80 g/ha
# Summary of the method: as §1
# [11] = tested on: VERPE; test: Pre-emergence herbicidal action against VERPE; format: in vivo, Veronica persica; details: Veronica persica, 504 h; for pest or weed control at 80 g/ha: dosage 80 g/ha; for pest or weed control at 320 g/ha: dosage 320 g/ha
# Summary of the method: as §2
# [12] = tested on: AVEFA; test: Pre-emergence herbicidal action against AVEFA; format: in vivo, Avena fatua; details: Avena fatua, 504 h, pre-emergence
# Summary of the method: as §2
# [13] = tested on: ALOMY; test: Pre-emergence herbicidal action against ALOMY; format: in vivo, Alopecurus myosuroides; details: Alopecurus myosuroides, 504 h, pre-emergence
# Summary of the method: as §2
# [14] = tested on: AVEFA; test: Post-emergence herbicidal action against AVEFA; format: in vivo, Avena fatua; details: Avena fatua, 504 h, visual assessment about 3 weeks after treatment, 100% = plants have died, 0% = like control plants
# Summary of the method: as §1
# [15] = tested on: STEME; test: Pre-emergence herbicidal action against STEME; format: in vivo, Stellaria media; details: Stellaria media, 504 h; for pest or weed control at 80 g/ha: dosage 80 g/ha; for pest or weed control at 320 g/ha: dosage 320 g/ha
# Summary of the method: as §2
# [16] = tested on: ALOMY; test: Post-emergence herbicidal action against ALOMY; format: in vivo, Alopecurus myosuroides; details: Alopecurus myosuroides, 504 h, visual assessment about 3 weeks after treatment vs untreated controls; for pest or weed control at 20 g/ha: dosage 20 g/ha; for pest or weed control at 80 g/ha: dosage 80 g/ha
# Summary of the method: as §1
# [17] = tested on: MATIN; test: Pre-emergence herbicidal action against MATIN; format: in vivo, Matricaria inodora; details: Tripleurospermum inodorum, 504 h; for pest or weed control at 80 g/ha: dosage 80 g/ha; for pest or weed control at 320 g/ha: dosage 320 g/ha
# Summary of the method: as §2
# [18] = tested on: AMARE; test: Post-emergence herbicidal action against AMARE; format: in vivo, Amaranthus retroflexus; details: Amaranthus retroflexus, 504 h, visual assessment about 3 weeks after treatment, 100% = plants have died, 0% = like control plants
# Summary of the method: as §1
# [19] = tested on: SETVI; test: Pre-emergence herbicidal action against SETVI; format: in vivo, Setaria viridis; details: Setaria viridis, 504 h; for pest or weed control at 80 g/ha: dosage 80 g/ha; for pest or weed control at 320 g/ha: dosage 320 g/ha
# Summary of the method: as §2
# [20] = tested on: MATIN; test: Post-emergence herbicidal action against MATIN; format: in vivo, Matricaria inodora; details: Tripleurospermum inodorum, 504 h; for pest or weed control at 20 g/ha: dosage 20 g/ha; for pest or weed control at 80 g/ha: dosage 80 g/ha
# Summary of the method: as §1
# [21] = tested on: ECHCG; test: Post-emergence herbicidal action against ECHCG; format: in vivo, Echinochloa crus-galli; details: Echinochloa crus-galli, 504 h; for pest or weed control at 20 g/ha: dosage 20 g/ha; for pest or weed control at 80 g/ha: dosage 80 g/ha
# Summary of the method: as §1
# [22] = tested on: VIOTR; test: Pre-emergence herbicidal action against VIOTR; format: in vivo, Viola tricolor; details: Viola tricolor, 504 h; for pest or weed control at 80 g/ha: dosage 80 g/ha; for pest or weed control at 320 g/ha: dosage 320 g/ha
# Summary of the method: as §2
# [23] = tested on: VIOTR; test: Post-emergence herbicidal action against VIOTR; format: in vivo, Viola tricolor; details: Viola tricolor, 504 h
# Summary of the method: as §1
# [24] = scored visually after 3 weeks vs untreated controls
# [25] = 20 g/ha, scored visually after 3 weeks, 100% = plants have died, 0% = like control plants
# [26] = scored visually after 3 weeks, 100% = plants have died, 0% = like control plants
smiles,measurement,setting,value
CNC(=O)c1c(C(F)(F)F)ccc(C(=O)Nc2nnnn2C)c1Cl [Example 1-129],pest or weed control at 5 g/ha,[1]; 5 g/ha,80%
same,pest or weed control at 20 g/ha,[1],80%
same,pest or weed control at 80 g/ha,[1],100%
same,pest or weed control at 80 g/ha,[2],90%
same,pest or weed control at 320 g/ha,[2],100%
same,pest or weed control at 80 g/ha,[3]; dosage 80 g/ha,100%
same,pest or weed control at 320 g/ha,[3],100%
same,pest or weed control at 20 g/ha,"[4]; 20 g/ha, scored visually after 3 weeks vs untreated controls",100%
same,pest or weed control at 80 g/ha,[4]; [24],100%
same,pest or weed control at 320 g/ha,[4],100%
same,pest or weed control at 5 g/ha,[5]; dosage 5 g/ha,80%
same,pest or weed control at 20 g/ha,[5],100%
same,pest or weed control at 80 g/ha,[5],100%
same,pest or weed control at 20 g/ha,[6]; 20 g/ha,80%
same,pest or weed control at 80 g/ha,[6],100%
same,pest or weed control at 320 g/ha,[6],100%
same,pest or weed control at 5 g/ha,[7]; dosage 5 g/ha,90%
same,pest or weed control at 20 g/ha,[7]; dosage 20 g/ha,100%
same,pest or weed control at 80 g/ha,[7],100%
same,pest or weed control at 20 g/ha,[8],100%
same,pest or weed control at 80 g/ha,[8],100%
same,pest or weed control at 5 g/ha,[8]; dosage 5 g/ha,100%
same,pest or weed control at 80 g/ha,[9],100%
same,pest or weed control at 5 g/ha,[10]; dosage 5 g/ha,100%
same,pest or weed control at 20 g/ha,[10],100%
same,pest or weed control at 80 g/ha,[10],100%
same,pest or weed control at 80 g/ha,[11],100%
same,pest or weed control at 320 g/ha,[11],100%
same,pest or weed control at 80 g/ha,[12],100%
same,pest or weed control at 20 g/ha,[12]; [25],100%
same,pest or weed control at 320 g/ha,[12]; [26],100%
same,pest or weed control at 80 g/ha,"[13]; 80 g/ha, scored visually after 3 weeks vs untreated controls (100% = plants have died, 0% = like control plants)",100%
same,pest or weed control at 20 g/ha,[13]; [25],90%
same,pest or weed control at 320 g/ha,[13]; [26],100%
same,pest or weed control at 20 g/ha,[14],100%
same,pest or weed control at 80 g/ha,[14],100%
same,pest or weed control at 20 g/ha,[15]; dosage 20 g/ha,100%
same,pest or weed control at 80 g/ha,[15],100%
same,pest or weed control at 320 g/ha,[15],100%
same,pest or weed control at 5 g/ha,[16]; dosage 5 g/ha,90%
same,pest or weed control at 20 g/ha,[16],100%
same,pest or weed control at 80 g/ha,[16],100%
same,pest or weed control at 20 g/ha,[17]; dosage 20 g/ha,100%
same,pest or weed control at 80 g/ha,[17],100%
same,pest or weed control at 320 g/ha,[17],100%
same,pest or weed control at 20 g/ha,[18],100%
same,pest or weed control at 80 g/ha,[18],100%
same,pest or weed control at 80 g/ha,[19],100%
same,pest or weed control at 320 g/ha,[19],100%
same,pest or weed control at 20 g/ha,[20],90%
same,pest or weed control at 80 g/ha,[20],100%
same,pest or weed control at 5 g/ha,[21]; dosage 5 g/ha,100%
same,pest or weed control at 20 g/ha,[21],100%
same,pest or weed control at 80 g/ha,[21],100%
same,pest or weed control at 20 g/ha,[22]; dosage 20 g/ha,100%
same,pest or weed control at 80 g/ha,[22],100%
same,pest or weed control at 320 g/ha,[22],100%
same,pest or weed control at 5 g/ha,[23]; 5 g/ha,80%
same,pest or weed control at 20 g/ha,[23]; 20 g/ha,100%
same,pest or weed control at 80 g/ha,[23],100%
CCn1nnnc1NC(=O)c1ccc(C(F)(F)F)c(C(=O)NC)c1SC [Example 2-81],pest or weed control at 20 g/ha,[1],80%
same,pest or weed control at 80 g/ha,[1],90%
same,pest or weed control at 80 g/ha,[2],90%
same,pest or weed control at 320 g/ha,[2],100%
same,pest or weed control at 320 g/ha,[3],100%
same,pest or weed control at 80 g/ha,[4]; [24],100%
same,pest or weed control at 320 g/ha,[4],100%
same,pest or weed control at 20 g/ha,[5],80%
same,pest or weed control at 80 g/ha,[5],90%
same,pest or weed control at 80 g/ha,[6],100%
same,pest or weed control at 320 g/ha,[6],100%
same,pest or weed control at 80 g/ha,[7],80%
same,pest or weed control at 20 g/ha,[8],90%
same,pest or weed control at 80 g/ha,[8],100%
same,pest or weed control at 80 g/ha,[9],80%
same,pest or weed control at 20 g/ha,[10],90%
same,pest or weed control at 80 g/ha,[10],90%
same,pest or weed control at 80 g/ha,[11],90%
same,pest or weed control at 320 g/ha,[11],90%
same,pest or weed control at 80 g/ha,[12],80%
same,pest or weed control at 320 g/ha,[12]; [26],100%
same,pest or weed control at 320 g/ha,[13]; [26],90%
same,pest or weed control at 20 g/ha,[14],90%
same,pest or weed control at 80 g/ha,[14],100%
same,pest or weed control at 80 g/ha,[15],90%
same,pest or weed control at 320 g/ha,[15],100%
same,pest or weed control at 20 g/ha,[16],80%
same,pest or weed control at 80 g/ha,[16],90%
same,pest or weed control at 80 g/ha,[17],100%
same,pest or weed control at 320 g/ha,[17],100%
same,pest or weed control at 20 g/ha,[18],90%
same,pest or weed control at 80 g/ha,[18],90%
same,pest or weed control at 80 g/ha,[19],100%
same,pest or weed control at 320 g/ha,[19],100%
same,pest or weed control at 20 g/ha,[20],100%
same,pest or weed control at 80 g/ha,[20],100%
same,pest or weed control at 20 g/ha,[21],90%
same,pest or weed control at 80 g/ha,[21],90%
same,pest or weed control at 80 g/ha,[22],90%
same,pest or weed control at 320 g/ha,[22],100%
same,pest or weed control at 80 g/ha,[23],90%

# Source: US12655116B2, “Substituted isophthalic acid diamides” (Bayer Aktiengesellschaft, priority 2020, dated 2026)
